Measurements reported in ChEMBL document CHEMBL1201862, “PubChem BioAssay data set” (2004).
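Following 48 hours of exposure in 96-well plates, responses at five concentrations were used to interpolate endpoints linearly. GI50 marks 50% less growth.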 Active and inactive are the calls of the source. Cut-off read from the data, not from the text of the source: active = GI50 up to about 1.1 µM and inactive = higher.

Legend:
Test in all cases: NCI tumour cell line growth inhibition, 48 h
786-0 = system: 786-0
A498 = system: A498
A549 = system: A549
ACHN = system: ACHN
BT-549 = system: BT-549
CAKI-1 = system: CAKI-1
CCRF-CEM = system: CCRF-CEM
COLO 205 = system: COLO 205
DU-145 = system: DU-145
EKVX = system: EKVX
HCT-116 = system: HCT-116
HCT-15 = system: HCT-15
HL-60 = system: HL-60
HOP-62 = system: HOP-62
HOP-92 = system: HOP-92
HT-29 = system: HT-29
Hs-578T = system: Hs-578T
IGROV-1 = system: IGROV-1
K562 = system: K562
KM12 = system: KM12
LOX IMVI = system: LOX IMVI
M14 = system: M14
MCF7 = system: MCF7
MDA-MB-231 = system: MDA-MB-231
MDA-MB-435 = system: MDA-MB-435
MDA-N = system: MDA-N
MOLT-4 = system: MOLT-4
Malme-3M = system: Malme-3M
NCI-H226 = system: NCI-H226
NCI-H23 = system: NCI-H23
NCI-H460 = system: NCI-H460
NCI-H522 = system: NCI-H522
NCI/ADR-RES = system: NCI/ADR-RES
OVCAR-3 = system: OVCAR-3
OVCAR-4 = system: OVCAR-4
OVCAR-5 = system: OVCAR-5
OVCAR-8 = system: OVCAR-8
PC-3 = system: PC-3
RPMI-8226 = system: RPMI-8226
RXF 393 = system: RXF 393
SF-268 = system: SF-268
SF-295 = system: SF-295
SF-539 = system: SF-539
SK-MEL-28 = system: SK-MEL-28
SK-MEL-2 = system: SK-MEL-2
SK-MEL-5 = system: SK-MEL-5
SK-OV-3 = system: SK-OV-3
SN12C = system: SN12C
SNB-75 = system: SNB-75
SR = system: SR
SW-620 = system: SW-620
T47D = system: T47D
TK-10 = system: TK-10
U-251 = system: U-251
UACC-257 = system: UACC-257
UACC-62 = system: UACC-62
UO-31 = system: UO-31

**Q.** `O=c1c2cc([N+](=O)[O-])ccc2nc2n1CCCCC2` was tested. Which GI50 (786-0) did it give?
**A.** > 100 µM (inactive)

**Q.** And the GI50 (A498)?
**A.** 87.9 µM (inactive)

**Q.** What about the GI50 (A549) of the same compound?
**A.** > 100 µM (inactive)

**Q.** And the GI50 (ACHN)?
**A.** > 100 µM (inactive)

**Q.** What about the GI50 (BT-549) of the same compound?
**A.** 78 µM (inactive)

**Q.** And the GI50 (CAKI-1)?
**A.** 79.6 µM (inactive)

**Q.** What about the GI50 (CCRF-CEM) of the same compound?
**A.** 21.5 µM (inactive)

**Q.** And the GI50 (COLO 205)?
**A.** > 100 µM (inactive)

**Q.** What about the GI50 (DU-145) of the same compound?
**A.** > 100 µM (inactive)

**Q.** What about the GI50 (EKVX) of the same compound?
**A.** 66.4 µM (inactive)

**Q.** What about the GI50 (HCT-116) of the same compound?
**A.** > 100 µM (inactive)

**Q.** And the GI50 (HCT-15)?
**A.** > 100 µM

**Q.** What about the GI50 (HL-60) of the same compound?
**A.** 14.2 µM (inactive)

**Q.** What about the GI50 (HOP-62) of the same compound?
**A.** > 100 µM (inactive)

**Q.** And the GI50 (HOP-92)?
**A.** > 100 µM (inactive)

**Q.** And the GI50 (HT-29)?
**A.** > 100 µM (inactive)

**Q.** What about the GI50 (Hs-578T) of the same compound?
**A.** 43.3 µM (inactive)

**Q.** What about the GI50 (IGROV-1) of the same compound?
**A.** > 100 µM (inactive)

**Q.** And the GI50 (K562)?
**A.** > 100 µM (inactive)

**Q.** And the GI50 (KM12)?
**A.** > 100 µM (inactive)

**Q.** And the GI50 (LOX IMVI)?
**A.** > 100 µM (inactive)

**Q.** And the GI50 (M14)?
**A.** > 100 µM (inactive)

**Q.** And the GI50 (MCF7)?
**A.** > 100 µM (inactive)

**Q.** What about the GI50 (MDA-MB-231) of the same compound?
**A.** > 100 µM (inactive)

**Q.** What about the GI50 (MDA-MB-435) of the same compound?
**A.** > 100 µM (inactive)

**Q.** And the GI50 (MDA-N)?
**A.** > 100 µM (inactive)

**Q.** And the GI50 (MOLT-4)?
**A.** > 100 µM (inactive)

**Q.** What about the GI50 (Malme-3M) of the same compound?
**A.** > 100 µM (inactive)

**Q.** And the GI50 (NCI-H226)?
**A.** > 100 µM (inactive)

**Q.** And the GI50 (NCI-H23)?
**A.** > 100 µM (inactive)

**Q.** What about the GI50 (NCI-H460) of the same compound?
**A.** > 100 µM (inactive)

**Q.** And the GI50 (NCI-H522)?
**A.** > 100 µM (inactive)

**Q.** And the GI50 (NCI/ADR-RES)?
**A.** > 100 µM (inactive)

**Q.** And the GI50 (OVCAR-3)?
**A.** > 100 µM (inactive)

**Q.** What about the GI50 (OVCAR-4) of the same compound?
**A.** > 100 µM (inactive)

**Q.** And the GI50 (OVCAR-5)?
**A.** > 100 µM (inactive)

**Q.** And the GI50 (OVCAR-8)?
**A.** > 100 µM (inactive)

**Q.** And the GI50 (PC-3)?
**A.** 89.3 µM (inactive)

**Q.** And the GI50 (RPMI-8226)?
**A.** > 100 µM (inactive)

**Q.** What about the GI50 (RXF 393) of the same compound?
**A.** > 100 µM (inactive)

**Q.** What about the GI50 (SF-268) of the same compound?
**A.** > 100 µM (inactive)

**Q.** And the GI50 (SF-295)?
**A.** > 100 µM (inactive)

**Q.** And the GI50 (SF-539)?
**A.** > 100 µM (inactive)

**Q.** And the GI50 (SK-MEL-28)?
**A.** > 100 µM (inactive)

**Q.** What about the GI50 (SK-MEL-2) of the same compound?
**A.** > 100 µM (inactive)

**Q.** And the GI50 (SK-MEL-5)?
**A.** > 100 µM (inactive)

**Q.** What about the GI50 (SK-OV-3) of the same compound?
**A.** > 100 µM (inactive)

**Q.** And the GI50 (SN12C)?
**A.** > 100 µM (inactive)

**Q.** What about the GI50 (SNB-75) of the same compound?
**A.** 57.1 µM (inactive)

**Q.** And the GI50 (SR)?
**A.** > 100 µM (inactive)

**Q.** And the GI50 (SW-620)?
**A.** > 100 µM (inactive)

**Q.** What about the GI50 (T47D) of the same compound?
**A.** > 100 µM (inactive)

**Q.** And the GI50 (TK-10)?
**A.** > 100 µM (inactive)

**Q.** And the GI50 (U-251)?
**A.** > 100 µM (inactive)

**Q.** And the GI50 (UACC-257)?
**A.** > 100 µM (inactive)

**Q.** And the GI50 (UACC-62)?
**A.** > 100 µM (inactive)

**Q.** And the GI50 (UO-31)?
**A.** > 100 µM (inactive)
